Test results published in US11091421B2, “Benzene fused heterocyclic derivative and pharmaceutical composition comprising the same” (TAIWANJ PHARMACEUTICALS CO., LTD., priority 2017, dated 2021).

Biological target: autotaxin (Homo sapiens, UniProt Q13822)
Assay: Autotaxin inhibitor screening assay (phosphodiesterase activity, p-nitrophenol cleaved from bis-(p-nitrophenyl) phosphate, absorbance 410 nm)
Type: biochemical
Conditions: pH 9, compound at 30 μM; BNPP 3 mM, pH 9.0, 37° C., 30 minutes; read-out: Inhibition
Experimental: As described above, the compounds in the present disclosure have the effect of inhibiting the activity of autotaxin, and can be used as autotaxin inhibitors. One method for inhibiting activity of autotaxin in environment is administering to the environment an effective amount of the compound of Formula (I). Please refer to the following experiment, the phosphodiesterase activity of autotaxin was measured using the p-nitrophenol that is a yellow product cleaved by autotaxin from the bis-(p-nitrophenyl) phosphate. Compound samples (10 μl) were incubated with autotaxin (10 μl) in a final volume of 200 μl assay buffer (5 mM CaCl2, 50 mM Tris-HCl, pH 9.0) containing bis-(p-nitrophenyl) phosphate (BNPP) at a final concentration of 3 mM at 37° C. After 30 minutes, absorbance at 410 nm of the reacted solution was measured. The percent inhibition for each test article (TA) (compound) was determined using the following equation. % Inhibition=(O.D.vehicle−O.D.TA)/O.D.vehicle×100

## O=C(O)c1ccc(COc2ccc3c(c2)C/C(=C\c2ccc(Cl)cc2)C3=O)cc1 [Compound 5]
  inhibition at 30 µM: > 80%

## O=C1/C(=C/c2ccc(C(F)(F)F)cc2)Cc2ccc(OCc3ccc(F)c(F)c3)cc21 [Compound 6]
  inhibition at 30 µM: < 50%

## O=C1/C(=C/c2cccc(C(F)(F)F)c2)Cc2ccc(OCc3ccc(F)c(F)c3)cc21 [Compound 7]
  inhibition at 30 µM: 50 to 80%

## O=C(O)c1ccc(/C=C2\Cc3ccc(OCc4ccc(F)c(F)c4)cc3C2=O)cc1 [Compound 8]
  inhibition at 30 µM: < 50%

## O=C(O)c1cccc(/C=C2\Cc3ccc(OCc4ccc(F)c(F)c4)cc3C2=O)c1 [Compound 9]
  inhibition at 30 µM: < 50%

## O=C(O)c1ccc(/C=C2\Cc3cc(OCc4cc(F)c(F)cc4F)ccc3C2=O)cc1 [Compound 10]
  inhibition at 30 µM: < 50%

## O=C(O)c1ccc(/C=C2\Cc3cccc(OCc4cc(F)c(F)cc4F)c3C2=O)cc1 [Compound 11]
  inhibition at 30 µM: 50 to 80%

## O=C(O)c1ccc(COc2ccc3c(c2)C/C(=C\c2ccc(-c4ccc(F)cc4)cc2)C3=O)cc1 [Compound 12]
  inhibition at 30 µM: > 80%

## O=C(O)c1ccc(COc2ccc3c(c2)C/C(=C\c2ccc(Cl)c(F)c2)C3=O)cc1 [Compound 13]
  inhibition at 30 µM: > 80%

## O=C(O)c1ccc(COc2ccc3c(c2)C/C(=C\c2ccc(OCc4cc(F)c(F)cc4F)cc2)C3=O)cc1 [Compound 14]
  inhibition at 30 µM: > 80%

## O=C(O)c1ccc(COc2ccc3c(c2)C/C(=C\c2ccc(OCc4cc(F)c(F)cc4F)c(F)c2)C3=O)cc1 [Compound 15]
  inhibition at 30 µM: 50 to 80%

## O=C(O)c1ccc(COc2ccc3c(c2)C/C(=C\c2ccc(OCCOc4ccc(F)cc4F)cc2)C3=O)cc1 [Compound 16]
  inhibition at 30 µM: 50 to 80%

## O=C(O)c1ccc(COc2ccc3c(c2)C/C(=C\CCc2cc(Cl)cc(Cl)c2)C3=O)cc1 [Compound 17]
  inhibition at 30 µM: > 80%

## O=C(O)c1ccc(COc2ccc3c(c2)C/C(=C\c2cc(F)c(F)c(F)c2)C3=O)cc1 [Compound 18]
  inhibition at 30 µM: 50 to 80%

## O=C(O)c1ccc(COc2ccc3c(c2)C/C(=C\c2ccc(Cl)cc2Cl)C3=O)cc1 [Compound 19]
  inhibition at 30 µM: > 80%

## O=C(O)c1ccc(COc2ccc3c(c2)C/C(=C\c2cc(Cl)cc(Cl)c2)C3=O)cc1 [Compound 20, (E)-4-(((2-(3,5-dichlorobenzylidene)-1-oxo-2,3-dihydro-1H-inden-5-yl)oxy)methyl)benzoic acid]
  inhibition at 30 µM: > 80%

## O=C(O)c1ccc(COc2ccc3c(c2)C/C(=C\c2cc(F)c(F)cc2F)C3=O)cc1 [Compound 21]
  inhibition at 30 µM: > 80%

## O=C(Nc1ccc2c(c1)C/C(=C\c1cccc(C(F)(F)F)c1)C2=O)OCc1ccccc1 [Compound 26]
  inhibition at 30 µM: < 50%

## O=C(Nc1ccc2c(c1)C/C(=C\c1ccc(C(F)(F)F)cc1)C2=O)OCc1ccccc1 [Compound 27]
  inhibition at 30 µM: < 50%

## O=C(Nc1ccc2c(c1)C/C(=C\c1ccc(C(=O)O)cc1)C2=O)OCc1ccccc1 [Compound 28]
  inhibition at 30 µM: < 50%

## O=C(NCc1cc(F)ccc1F)c1ccc(CC2Cc3cc(O)ccc3C2=O)cc1 (stereo not drawn) [Compound 32]
  inhibition at 30 µM: < 50%

## O=C(NCc1cc(F)ccc1F)c1ccc(/C=C2\Cc3cc(O)ccc3C2=O)cc1 [Compound 33]
  inhibition at 30 µM: 50 to 80%

## O=C(OCc1cc(F)c(F)cc1F)c1ccc(CC2Cc3ccc(O)cc3C2=O)cc1 (stereo not drawn) [Compound 34]
  inhibition at 30 µM: 50 to 80%

## O=C(Nc1ccc2c(c1)C(=O)N(Cc1ccc(C(F)(F)F)cc1)C2=O)OCc1ccccc1 [Compound 38]
  inhibition at 30 µM: < 50%

## O=C(O)c1ccc(CC2CCc3cc(OCc4cc(F)c(F)cc4F)ccc3C2=O)cc1 (stereo not drawn) [Compound 44]
  inhibition at 30 µM: < 50%

## O=C(NCCO)c1ccc(CC2CCc3cc(OCc4cc(F)c(F)cc4F)ccc3C2=O)cc1 (stereo not drawn) [Compound 45]
  inhibition at 30 µM: 50 to 80%

## O=C(O)c1ccc(/C=C2\CCc3c(OCc4cc(F)c(F)cc4F)cccc3C2=O)cc1 [Compound 46]
  inhibition at 30 µM: 50 to 80%

## O=C(O)c1ccc(CC2CCc3c(OCc4cc(F)c(F)cc4F)cccc3C2=O)cc1 (stereo not drawn) [Compound 47]
  inhibition at 30 µM: 50 to 80%

## O=C(O)c1ccc(/C=C2\CCc3cc(OCCc4ccc(F)cc4)ccc3C2=O)cc1 [Compound 50]
  inhibition at 30 µM: 50 to 80%

## O=C(O)c1ccc(CC2CCc3cc(OCCc4ccc(F)cc4)ccc3C2=O)cc1 (stereo not drawn) [Compound 51]
  inhibition at 30 µM: > 80%

## O=C(O)c1cc(CC2CCc3cc(OCCc4cc(F)ccc4F)ccc3C2=O)ccc1O (stereo not drawn) [Compound 52]
  inhibition at 30 µM: 50 to 80%

## O=C1c2ccc(OCCc3cc(F)ccc3F)cc2CCC1Cc1ccc(O)c(O)c1 (stereo not drawn) [Compound 53]
  inhibition at 30 µM: > 80%

## O=C(NCc1cc(F)ccc1F)c1ccc(CC2CCc3cc(O)ccc3C2=O)cc1 (stereo not drawn) [Compound 56]
  inhibition at 30 µM: < 50%

## O=C(OCc1cc(F)c(F)cc1F)c1ccc(CC2CCc3cc(O)ccc3C2=O)cc1 (stereo not drawn) [Compound 57]
  inhibition at 30 µM: > 80%

## O=C(OCc1ccc(F)c(F)c1)c1ccc(CC2CCc3cc(OCc4ccc(F)c(F)c4)ccc3C2=O)cc1 (stereo not drawn) [Compound 58]
  inhibition at 30 µM: > 80%

## O=C(NCc1ccc(F)c(F)c1)c1ccc(CC2CCc3cc(O)ccc3C2=O)cc1 (stereo not drawn) [Compound 59]
  inhibition at 30 µM: 50 to 80%

## O=C(NCCc1ccc(Cl)c(Cl)c1)c1ccc(CC2CCc3cc(O)ccc3C2=O)cc1 (stereo not drawn) [Compound 60]
  inhibition at 30 µM: 50 to 80%

## CN(Cc1cc(F)c(F)cc1F)C(=O)c1ccc(CC2CCc3cc(O)ccc3C2=O)cc1 (stereo not drawn) [Compound 61]
  inhibition at 30 µM: 50 to 80%

## O=C(OCc1cc(F)ccc1F)c1ccc(CC2CCc3cc(OCc4cc(F)ccc4F)ccc3C2=O)cc1 (stereo not drawn) [Compound 62]
  inhibition at 30 µM: > 80%

## O=C(Nc1ccc(CC2CCc3cc(O)ccc3C2=O)cc1)OCc1ccc(Cl)c(Cl)c1 (stereo not drawn) [Compound 68]
  inhibition at 30 µM: > 80%

## O=C(Cc1ccc(F)c(F)c1)Nc1ccc(CC2CCc3cc(O)ccc3C2=O)cc1 (stereo not drawn) [Compound 69]
  inhibition at 30 µM: < 50%

## O=C(Nc1ccc(CC2CCc3cc(O)ccc3C2=O)cc1)OCc1cc(Cl)cc(Cl)c1 (stereo not drawn) [Compound 70]
  inhibition at 30 µM: > 80%

## O=C(Nc1ccc(CC2CCc3cc(O)ccc3C2=O)cc1)OCc1cc(F)c(F)cc1F (stereo not drawn) [Compound 71]
  inhibition at 30 µM: 50 to 80%

## O=C(O)c1ccc(CN2CCc3cc(OCc4cc(F)c(F)cc4F)ccc3C2=O)cc1 [Compound 77]
  inhibition at 30 µM: 50 to 80%

## O=C(CCc1ccc(CC2CCc3cc(O)ccc3C2=O)cc1)c1ccc(F)c(F)c1 (stereo not drawn) [Compound 81]
  inhibition at 30 µM: 50 to 80%

## O=C1c2ccc(O)cc2CCC1CN1CCN(C(=O)OCc2cc(Cl)cc(Cl)c2)CC1 (stereo not drawn) [Compound 85]
  inhibition at 30 µM: > 80%

## COC(=O)c1ccc(COc2ccc3c(c2)C/C(=C\c2ccc(Cl)c(F)c2)C3=O)cc1 [Compound 88]
  inhibition at 30 µM: > 80%

## COC(=O)c1ccc(COc2ccc3c(c2)O/C(=C\c2ccc(F)c(F)c2)C3=O)cc1 [Compound 89]
  inhibition at 30 µM: 50 to 80%

## O=C1/C(=C/c2ccc(C(F)(F)F)cc2)CCc2cc(OCc3ccc(F)c(F)c3)ccc21 [Compound 92]
  inhibition at 30 µM: 50 to 80%

## O=C1/C(=C/c2cccc(C(F)(F)F)c2)CCc2cc(OCc3ccc(F)c(F)c3)ccc21 [Compound 93]
  inhibition at 30 µM: 50 to 80%

## O=C(Nc1ccc(F)c(F)c1)c1ccc2c(c1)C(=O)N(Cc1cccc(C(F)(F)F)c1)C2=O [Compound 96]
  inhibition at 30 µM: 50 to 80%

## O=C1/C(=C/c2ccc(OCc3cc(F)c(F)cc3F)cc2)CCc2cc(O)ccc21 [Compound 99]
  inhibition at 30 µM: < 50%

## O=C1/C(=C/c2ccc(OCCc3ccc(F)cc3)cc2)CCc2cc(O)ccc21 [Compound 100]
  inhibition at 30 µM: < 50%

## O=C1/C(=C/c2ccc(OCCOc3ccc(F)cc3F)cc2)CCc2cc(O)ccc21 [Compound 101]
  inhibition at 30 µM: < 50%
